The values that follow come from patent US20060173015A1, “Cyclohexyldiamines as selective alpha 1a/1d adrenoreceptor antagonists for the treatment of benign prostatic hypertrophy and lower urinary tract symptoms” (priority 2004, published 2006).

Structures can show the parent of a compound that is named as a salt.

Series [1] relates to α1a and α1d subtypes over the α1b subtype. As to conditions: cited from earlier work.
The test system of another series is BPH patients. As to conditions: large clinical trials of BPH patients; cited from earlier work.
The subject of the next series is micturition pressure. Conditions: intrathecal; normal rats and rats with bladder hypertrophy secondary to outlet obstruction; cited from earlier work.

One may read the melting point as the temperature, or range, at which the solid turns liquid. Consider `COc1ccc(S(=O)(=O)N[C@H]2CC[C@@H](N3CCN(c4cc(F)ccc4OCC(F)(F)F)CC3)CC2)cc1OC` (as salt: fumarate) [Cpd 83, N-cis-(4-{4-[5-Fluoro-2-(2,2,2-trifluoro-ethoxy)-phenyl]-piperazin-1-yl}-cyclohexyl)-3,4-dimethoxy-benzenesulfonamide], for which the melting point was determined as 232 °C.
Still for that read-out and setting: the result for `COc1ccc(S(=O)(=O)N[C@H]2CC[C@H](N3CCN(c4cc(F)ccc4OCC(F)(F)F)CC3)CC2)cc1OC` (as salt: fumarate) [Cpd 84, N-trans-(4-{4-[5-Fluoro-2-(2,2,2-trifluoro-ethoxy)-phenyl]-piperazin-1-yl}-cyclohexyl)-3,4-dimethoxy-benzenesulfonamide] reads 185 °C.
Take `CCOc1ccccc1OCCN[C@H](C)Cc1ccc(OC)c(S(N)(=O)=O)c1` [Tamsulosin]: in series [1], the “selectivity for the α1a and α1d subtypes over the α1b subtype” value is “about 15 fold”. Moreover, the “effect on obstructive and irritative symptoms” value in the series on BPH patients is “improvement in both obstructive and irritative symptoms”.
In the case of `COc1cc2nc(N3CCN(C(=O)C4COc5ccccc5O4)CC3)nc(N)c2cc1OC` (centres unmarked) [doxazosin], in the series on micturition pressure, the “effect on micturition pressure” value was “decrease in micturition pressure”.
